The source of these data is PubChem BioAssay AID248 (DTP/NCI, 2004).

This assay concerns L1210 leukemia ip in BDF1 mice, survival T/C. As to the kind of experiment: NCI In Vivo Anticancer Drug Screen. Data for tumor model L1210 Leukemia (intraperitoneal) in B6D2F1 (BDF1) mice. The settings on record: endpoint: mean survival time, higher = longer survival. In a few lines:
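Mice bearing the transplanted tumor received compound or vehicle. Survival of the treated group was divided by that of the vehicle-treated control group to give the ratio.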

Where “and” joins values, the source holds several entries; their conditions need not be identical. Equal values may be shown once. Inconclusive results and toxic doses are left out.

For the compound `CC(=O)NC(CCC(=O)C=[N+]=N)C(=O)O` (configuration not stated), the T/C is 98 % of control and 100 % of control and 101 % of control (dose: 0.1 mg/kg/injection, schedule: Q01DX009 (ip), vehicle: other); 105 % of control and 116 % of control (2×) (dose: 0.2 mg/kg/injection, schedule: Q01DX009 (ip), vehicle: other); 108 % of control (dose: 0.2 mg/kg/injection, schedule: Q01DX015 (ip), vehicle: saline); 106 % of control (dose: 0.4 mg/kg/injection, schedule: Q01DX001 (ip), vehicle: saline); 100 % of control (dose: 0.4 mg/kg/injection, schedule: Q01DX009 (ip), vehicle: other); 120 % of control (dose: 0.4 mg/kg/injection, schedule: Q01DX015 (ip), vehicle: saline). The T/C is 109 % of control (dose: 0.5 mg/kg/injection, schedule: Q01DX001 (ip), vehicle: other); 113 % of control (dose: 0.5 mg/kg/injection, schedule: Q01DX001 (ip), vehicle: saline); 113 % of control (dose: 0.5 mg/kg/injection, schedule: Q04DX003 (ip), vehicle: other); 106 % of control (dose: 0.5 mg/kg/injection, schedule: Q08DX002 (ip), vehicle: other); 110 % of control (dose: 0.6 mg/kg/injection, schedule: Q01DX001 (ip), vehicle: saline); 123 % of control (dose: 0.6 mg/kg/injection, schedule: Q01DX015 (ip), vehicle: saline). The T/C reads like this: (dose: 0.8 mg/kg/injection, schedule: Q01DX009 (ip), vehicle: other) 119 % of control; (dose: 1.0 mg/kg/injection, schedule: Q01DX001 (ip), vehicle: other) 106 % of control; (dose: 1.0 mg/kg/injection, schedule: Q01DX009 (ip), vehicle: other) 122 % of control; (dose: 1.0 mg/kg/injection, schedule: Q01DX015 (ip), vehicle: saline) 121 % of control; (dose: 1.0 mg/kg/injection, schedule: Q04DX003 (ip), vehicle: other) 120 % of control; (dose: 1.0 mg/kg/injection, schedule: Q08DX002 (ip), vehicle: other) 109 % of control. The T/C is 114 % of control (dose: 1.5 mg/kg/injection, schedule: Q01DX001 (ip), vehicle: saline); 111 % of control (dose: 2.0 mg/kg/injection, schedule: Q01DX001 (ip), vehicle: other); 122 % of control (dose: 2.0 mg/kg/injection, schedule: Q01DX001 (ip), vehicle: saline); 96 % of control (dose: 2.0 mg/kg/injection, schedule: Q01DX009 (ip), vehicle: other); 120 % of control (dose: 2.0 mg/kg/injection, schedule: Q04DX003 (ip), vehicle: other); 111 % of control (dose: 2.0 mg/kg/injection, schedule: Q08DX002 (ip), vehicle: other). For the same compound, the T/C is, setting by setting: (dose: 4.0 mg/kg/injection, schedule: Q01DX001 (ip), vehicle: saline) 112 % of control; (dose: 4.0 mg/kg/injection, schedule: Q04DX003 (ip), vehicle: other) 117 % of control; (dose: 5.0 mg/kg/injection, schedule: Q01DX001 (ip), vehicle: other) 111 % of control; (dose: 5.0 mg/kg/injection, schedule: Q03HX008 (ip), vehicle: other) 117 % of control; (dose: 5.0 mg/kg/injection, schedule: Q03HX024 (ip), vehicle: other) 150 % of control; (dose: 5.0 mg/kg/injection, schedule: Q08DX002 (ip), vehicle: other) 121 % of control. The T/C (dose: 10.0 mg/kg/injection, schedule: Q01DX001 (ip), vehicle: other) is 122 % of control; the T/C (dose: 10.0 mg/kg/injection, schedule: Q03HX008 (ip), vehicle: other) was 118 % of control; the T/C (dose: 10.0 mg/kg/injection, schedule: Q03HX024 (ip), vehicle: other) was 187 % of control; the T/C (dose: 16.0 mg/kg/injection, schedule: Q01DX001 (ip), vehicle: saline) was 117 % of control; the T/C (dose: 20.0 mg/kg/injection, schedule: Q03HX008 (ip), vehicle: other) is 110 % of control; the T/C (dose: 20.0 mg/kg/injection, schedule: Q03HX024 (ip), vehicle: other) is 172 % of control. Further, the T/C runs as follows: (dose: 32.0 mg/kg/injection, schedule: Q01DX001 (ip), vehicle: saline) 118 % of control; (dose: 40.0 mg/kg/injection, schedule: Q03HX008 (ip), vehicle: other) 121 % of control; (dose: 40.0 mg/kg/injection, schedule: Q03HX016 (ip), vehicle: other) 150 % of control; (dose: 40.0 mg/kg/injection, schedule: Q03HX024 (ip), vehicle: other) 112 % of control.
As to `Clc1ccnc2[nH]ncc12`, the T/C reads like this: (dose: 60.0 mg/kg/injection, schedule: Q01DX001 (ip), vehicle: other) 97 % of control; (dose: 120.0 mg/kg/injection, schedule: Q01DX001 (ip), vehicle: other) 105 % of control.
Take `CCC12CCCN3C(=O)CC(C(=O)CC1)C32` (configuration not stated): the T/C (dose: 100.0 mg/kg/injection, schedule: Q04DX003 (ip), vehicle: saline) is 107 % of control.
In the case of `CC(=O)OCCOc1ccc([N+](=O)[O-])cc1`, the T/C (dose: 100.0 mg/kg/injection, schedule: Q04DX003 (ip), vehicle: saline with Tween-80) is 102 % of control; the T/C (dose: 200.0 mg/kg/injection, schedule: Q04DX003 (ip), vehicle: saline with Tween-80) was 102 % of control; the T/C (dose: 400.0 mg/kg/injection, schedule: Q04DX003 (ip), vehicle: saline with Tween-80) is 103 % of control.
On to `O=C(Nc1ccccc1F)N1CCCCC1`, for which the T/C by setting is: (dose: 100.0 mg/kg/injection, schedule: Q01DX009 (ip), vehicle: gum acacia) 97 % of control; (dose: 200.0 mg/kg/injection, schedule: Q01DX009 (ip), vehicle: gum acacia) 97 % of control; (dose: 400.0 mg/kg/injection, schedule: Q01DX009 (ip), vehicle: gum acacia) 100 % of control.
For the compound `O=C(CBr)Nc1ccc(S(=O)(=O)F)cc1`, the T/C is, setting by setting: (dose: 2.34 mg/kg/injection, schedule: Q01DX009 (ip), vehicle: carboxymethylcellulose (CMC)) 94 % of control; (dose: 4.68 mg/kg/injection, schedule: Q01DX009 (ip), vehicle: carboxymethylcellulose (CMC)) 86 % of control; (dose: 9.37 mg/kg/injection, schedule: Q01DX009 (ip), vehicle: carboxymethylcellulose (CMC)) 86 % of control; (dose: 18.75 mg/kg/injection, schedule: Q04DX003 (ip), vehicle: carboxymethylcellulose (CMC)) 101 % of control; (dose: 75.0 mg/kg/injection, schedule: Q01DX001 (ip), vehicle: carboxymethylcellulose (CMC)) 94 % of control.
For the compound `COc1ccccc1CN1CCCN(Cc2ccccc2OC)C1c1cccc(F)c1`, the T/C by setting is: (dose: 50.0 mg/kg/injection, schedule: Q01DX001 (ip), vehicle: carboxymethylcellulose (CMC)) 112 % of control; (dose: 100.0 mg/kg/injection, schedule: Q01DX001 (ip), vehicle: carboxymethylcellulose (CMC)) 108 % of control; (dose: 200.0 mg/kg/injection, schedule: Q01DX001 (ip), vehicle: carboxymethylcellulose (CMC)) 108 % of control; (dose: 400.0 mg/kg/injection, schedule: Q01DX001 (ip), vehicle: carboxymethylcellulose (CMC)) 102 % of control.
Take `c1ccc(CCN2CCC(CCc3c[nH]c4ccccc34)CC2)cc1`: the T/C is, setting by setting: (dose: 50.0 mg/kg/injection, schedule: Q01DX001 (ip), vehicle: saline) 96 % of control; (dose: 100.0 mg/kg/injection, schedule: Q01DX001 (ip), vehicle: saline) 117 % of control.
As for `Cc1ccc(S(=O)(=O)N(C)c2ccc(C(=O)O)cc2F)cc1`, the T/C is 105 % of control (dose: 75.0 mg/kg/injection, schedule: Q01DX001 (ip), vehicle: saline); 100 % of control (dose: 75.0 mg/kg/injection, schedule: Q04DX003 (ip), vehicle: saline); 90 % of control (dose: 150.0 mg/kg/injection, schedule: Q01DX001 (ip), vehicle: saline); 97 % of control (dose: 150.0 mg/kg/injection, schedule: Q04DX003 (ip), vehicle: saline); 98 % of control (dose: 300.0 mg/kg/injection, schedule: Q01DX001 (ip), vehicle: saline); 97 % of control (dose: 300.0 mg/kg/injection, schedule: Q04DX003 (ip), vehicle: saline).
Take `Nc1nc(N)c(-c2ccc(Cl)cc2)c(CCc2cccc(NC(=O)c3cccc(S(=O)(=O)F)c3)c2)n1`: the T/C was 93 % of control (dose: 100.0 mg/kg/injection, schedule: Q01DX001 (ip), vehicle: saline with Tween-80); 95 % of control (dose: 200.0 mg/kg/injection, schedule: Q01DX001 (ip), vehicle: saline with Tween-80); 97 % of control (dose: 400.0 mg/kg/injection, schedule: Q01DX001 (ip), vehicle: saline with Tween-80).
For `CC(C)(SC(c1ccccc1)(c1ccccc1)c1ccccc1)C(N)C(=O)O` (configuration not stated), the T/C (dose: 6.25 mg/kg/injection, schedule: Q01DX009 (ip), vehicle: saline) is 103 % of control; the T/C (dose: 12.5 mg/kg/injection, schedule: Q01DX009 (ip), vehicle: saline) was 102 % of control; the T/C (dose: 25.0 mg/kg/injection, schedule: Q01DX009 (ip), vehicle: saline) is 108 % of control.
